Experimental data as given in patent publication US20100080757A1, “METHOD OF DETECTING ABNORMAL TISSUE” (priority 2005, published 2010).

Legend:
small hepatoma = assay: MRI perfusion study, baseline and AZ enhanced; type: in vivo
Text: FIGS. 7(a-b) are plots illustrating MRI perfusion study with the solid line showing flow in a small hepatoma and the dotted line showing flow in the normal parenchyma. FIG. 7a illustrates a baseline perfusion study showing quicker and higher enhancement of tumor vs normal liver.

hepatic artery = assay: Hepatic artery blood flow after intravenous acetazolamide; type: in vivo; details: 100 mg/kg intravenously; for Blood flow in the hepatic artery: before about 2.8 ml/min
Text: The amount of vasoactive agent administered to the subject to cause a noticeable increase or decrease in blood flow to the tissue of interest will depend on the specific agent administered to the subject.

normal liver = assay: Functional CT perfusion before and after acetazolamide, normal liver; type: in vivo, New Zealand White rabbits; details: acetazolamide 50 mg/kg IV, mean±SE
Text: (§1) All animal procedures were approved by the Institutional Animal Care and Use Committee at Case Western Reserve University. The VX2 tumor, a xenograft hepatoma model used frequently in radiological studies, was donated by S, Nahum Goldberg MD, (Beth Israel Medical Center, Boston, Mass.). Tumor was initiated in livers of 5 male New Zealand White rabbits weighing 3 kg (Covance, Princeton, N.J.) using methods described previously. The tumor was first propagated in the thigh of a donor rabbit, where a suspension of tumor cells was injected intramuscularly into one thigh. The tumor was grown until the palpated size reached approximately 1 cm^3 and was harvested from anesthetized animals using sterile techniques. Pieces of the tumor (4 mm^3) were cut, placed in 10% DMSO in pure calf's serum, and stored in liquid nitrogen.
(§2) For implantation in the liver, frozen tumor was rapidly thawed and washed. Rabbits were anesthetized using a combination of xylazine (5 mg/kg), ketamine (50 mg/kg), acepromazine (2 mg/kg) and atropine (0.2 mg/kg). The abdomen was shaved and cleaned, and the liver was exposed. A piece of tumor was then inserted into the liver parenchyma and the incisions were closed. During recovery, all animals received Buprenex (0.5 mg/kg) for pain management and a subcutaneous injection of 25 ml of 0.9% saline. Additional Buprenex and saline were given as needed.
(§3) Liver perfusion maps were created 28 days after initiation of the tumor by tracking contrast enhancement on eight sequential CT images (acquired on the Mx8000 IDT, Philips Medical scanner) before and after IV injection of acetazolamide. During each CT exam, first an unenhanced baseline scan was carried out. […]
(§4) A CT perfusion software package available from the scanner manufacturer was used for all perfusion measurements. […] Arterial and portal perfusion were calculated by measuring the slope of the time-density curve before (arterial) and after (venous) peak splenic enhancement and normalizing by the vascular input. A mean percent change in perfusion before and after CAI injection was calculated. […]

[1] = test system: suspected recurrent tumor in liver; assay: MR of suspected recurrent liver tumor without and after Diamox; type: in vivo, Humans; details: post Diamox scan vs baseline scan; lesion confirmed benign inflammation
Text: FIGS. 11(a-c) are MR of suspected recurrent tumor in liver without (A) and after (B) vasodilator (Diamox), and image-guided biopsy confirmation (C). In A and B, the solid line corresponds to the lesion and the “dashed” line corresponds to the normal liver.
Several preliminary studies have been carried out using a protocol approved by the Institutional Review Board (IRB) of University Hospitals of Cleveland (FIGS. 10-11). One patient undergoing routine biopsy was screened using a pre- and post-acetazolamide injection contrast-enhanced CT scans. Following the scans, a biopsy of the tissue was taken and sent for routine histological analysis. On the image data, standard region of interest (ROI) analysis was used to obtain signal intensity values (in Hounsfield units or HU) over 600 seconds in normal liver and the mass. […] Our general hypothesis is that normal vessels either in normal liver or benign lesions respond to the vasodilatation, so the decrease in conspicuity results from dilatation of both vessel sites. […] This was confirmed by histological diagnosis. A patient with a suspected recurrent tumor underwent a similar protocol as above. Again, on the baseline scan, the lesion enhances less than the normal liver. […] Instead of creating a “steal”, the flow increases flow in the lesion indicating it has normal vessels consistent with benign inflammation. […]

VX2 tumor = assay: Functional CT perfusion before and after acetazolamide, tumor peripheral rim; type: in vivo, New Zealand White rabbits; details: peripheral rim of untreated tumor, day 28; acetazolamide 50 mg/kg IV; mean±SE
Text: as §1, §2, §3, §4

kidney = details: Taki et al.; without systemic effects; cited from earlier work
liver = details: Taki et al.; without systemic effects; cited from earlier work
[2] = test system: inflammatory pseudotumor (benign liver lesion); assay: Contrast-enhanced CT before and after acetazolamide in a biopsy patient; type: in vivo, Humans
Procedure: FIG. 10 is a plot illustrating CT perfusion analysis of a biopsy proven inflammatory pseudotumor before and after acetazolamide (AZ) administration (AZ 250 mg+50 mL Optiray 320).
Several preliminary studies have been carried out using a protocol approved by the Institutional Review Board (IRB) of University Hospitals of Cleveland (FIGS. 10-11). One patient undergoing routine biopsy was screened using a pre- and post-acetazolamide injection contrast-enhanced CT scans. Following the scans, a biopsy of the tissue was taken and sent for routine histological analysis. On the image data, standard region of interest (ROI) analysis was used to obtain signal intensity values (in Hounsfield units or HU) over 600 seconds in normal liver and the mass. […] Our general hypothesis is that normal vessels either in normal liver or benign lesions respond to the vasodilatation, so the decrease in conspicuity results from dilatation of both vessel sites. […] This was confirmed by histological diagnosis. A patient with a suspected recurrent tumor underwent a similar protocol as above. Again, on the baseline scan, the lesion enhances less than the normal liver. […] Instead of creating a “steal”, the flow increases flow in the lesion indicating it has normal vessels consistent with benign inflammation. Again, the results were confirmed with CT-guided biopsy.

woodchuck hepatoma = assay: FDG PET uptake curves with and without phenylephrine; type: in vivo; details: PET with FDG and phenylephrine vs baseline FDG alone
Text: FIG. 8 is a plot illustrating FDG uptake curves in woodchuck hepatoma from two PET studies.

lung cancer = assay: FDG PET of lung cancer before and after oral pseudoephedrine; type: in vivo; details: after oral pseudoephedrine; baseline SUV 4.8
Text: FIGS. 9(a-b) are baseline CT (A) and corresponding PET (B) images of lung cancer. FIGS. 9(c-d) are images illustrating Tumor after oral pseudoephedrine. The tumor has not changed size on CT but has increased PET signal. SUV increased from 4.8 to 8.8, presumably due to increased blood flow to tumor and capture of FDG.

normal prostate vessels = assay: DCE MRI of the normal prostate with vasoactive drugs; type: in vivo, person
Procedure: A person with no history of prostate cancer and normal PSA, volunteered for multiple DCE MRI exams of the prostate to evaluate vasoactive modulation of the normal blood flow. Three separate examinations were performed several weeks apart. The studies were performed on a Siemens 1.5T Symphony scanner. The DCE MRI examination included, Siemens's tfiperf, (inversion fisp) sequence. TR=3000, TE=1.27, TI=400 flip angle=50. Gadolinium Veresetamide […], injection at 2 cc/sec for a total of 20 cc. Images were obtained every 3 seconds for a total period of 5 minutes and every minute thereafter for 15 minutes.
All three studies were performed with identical MRI sequences and parameters. The first study was performed without a vasoactive drug but the second and third study were repeated with administration of a vasoactive drug, silfenadil or pseudoephedrine. […] The third DCE MRI was performed identical to the second study with the oral administration of 25 mg of silfenadil one hour before the study, and the administration of 60 mg of pseudoephedrine 20 minutes preceding the gadolinium injection. The absorption rate of each drug is quite predictable according to the literature so the initial part of the study performed before the pseudoephedrine was vasodilated and the subsequent study had vasodilator combined with a vasoconstrictor.
Data analysis was performed using ANALYZE data management software (Analyze Direct, Inc., Lenexa, Kans., 66215, USA) and Excel (Microsoft, Seattle, Wash.).
Data graphs were normalized to the blood flow of the iliac artery. The data was acquired during the five minute period following intravenous gadolinium injection and thereby provides a semiquantitative assessment of blood flow characteristics, see below data discussion.

[3] = between 21 seconds and 72 seconds, 25 mg oral one hour prior
[4] = gadolinium after sildenafil, FIG. 13 legend

CC(=O)Nc1nnc(S(N)(=O)=O)s1 [acetazolamide]
Enhancement of tumor vs normal liver (small hepatoma): decrease in enhancement of the tumor compared to the normal liver
Increase in the blood flow through the hepatic artery (hepatic artery): about 18%
Blood flow in the hepatic artery (hepatic artery; after about 10 minutes): about 3.1 ml/min
Blood flow in the hepatic artery (hepatic artery; after about 20 minutes): about 3.3 ml/min
Change in arterial perfusion (normal liver): −3±33%
Change in total perfusion (normal liver): 41±18%
Change in venous perfusion (normal liver): 31±18%
Enhancement of the lesion [1]: increases relative to the normal liver
Change in arterial perfusion (VX2 tumor): −31±9%
Change in total perfusion (VX2 tumor): −30±7%
Change in venous perfusion (VX2 tumor): −20±12%
Increase in blood flow to the kidney (kidney): 33+/−11%
Increase in blood flow to the liver (liver): 75+/−36%
Conspicuity ([2]; after AZ injection (AZ 250 mg), 32 HU before, benign lesion): 15 HU
Blood flow / signal intensity ([2]; post-acetazolamide contrast-enhanced CT, normal liver and mass): increases in the normal liver and in the mass

CNC[C@H](O)c1cccc(O)c1 [phenylephrine]
FDG uptake in lesion (woodchuck hepatoma): increased uptake

CN[C@@H](C)[C@@H](O)c1ccccc1 [pseudoephedrine]
SUV (FDG PET signal of tumor) (lung cancer): 8.8
Reduction in the enhancement (normal prostate vessels; after 14 minutes, pseudoephedrine 60 mg oral on top of silfenadil 25 mg oral): about 20%
Intensity in the equilibration phase (normal prostate vessels; at 14 minutes, pseudoephedrine 60 mg oral after Sildenafil 25 mg oral): definite decrease in intensity

CCCc1nn(C)c2c(=O)[nH]c(-c3cc(S(=O)(=O)N4CCN(C)CC4)ccc3OCC)nc12 [sildenafil]
Enhancement of the prostate gland on MRI image (normal prostate vessels; after sildenafil 50 mg and gadolinium, vs study without Viagra (FIG. 16)): greater enhancement of the gland
Increase of lateral lobe enhancement vs baseline study (normal prostate vessels; [3]): 78%
Increase of medial lobe enhancement vs baseline study (normal prostate vessels; [3]): 73%
Enhancement greater than the enhanced undilated study, medial lobe (normal prostate vessels; [4]): 78%
Maximum enhancement greater than the enhanced, undilated study, lateral lobe (normal prostate vessels; [4]): 73%
Increase of enhancement curve vs baseline enhancement curve (normal prostate vessels; throughout the entire scan period of 5 minutes (300 seconds), 25 mg oral one hour prior): more than 70%
